Reference: patent publication US20120095058A1, “Method of preventing survival of retrovirally cells and of inhibiting formation of infectious retroviruses” (priority 2003, published 2012)

How the values were obtained:
uninfected lymphocytes = test: Apoptosis of uninfected lymphocytes by TUNEL flow cytometry; assay type: cell-based, human; settings: for apoptosis of lymphocytes harvested from healthy volunteers: exposed for 20 hours
Protocol: (§1) Methods: The drug deferiprone (DEF) and ciclopirox (CPX), known as DOHH inhibitors, were compared to the chelators 2-imidazoyl-4-methylphenol (IMP) and desferal (DES). Apoptosis of HIV-1 infected H9 cells, HPV-16 infected SiHa cells, and uninfected lymphocytes was analyzed by TUNEL flow cytometry. DOHH) activity was measured by metabolic labeling with 3H-spennidine.

[1] = tested on: HIV-1 spliced and unspliced transcripts; test: RNase protection assay of spliced and unspliced HIV-1 transcripts in transfected 293T cells; assay type: cell-based, human; settings: 30 μM, FIG. 1A
Protocol: (§2) (A, B) Inhibition of accumulation of spliced and unspliced HIV transcripts. Human 293 T cells were co-transfected with plasmids carrying the HIV-1 molecular clone (10 μg) and a CMV-Renilla luciferase construct (2 μg). Ciclopirox (CPX) or Princeton 2 (P2) were added to a final concentration of 30 μM 3 hours later. RNA was isolated from nuclear and cytoplasmic fractions at 15 hours after transfection. RNase protection assays used probes for the HIV-1 major splice donor site sequence (A), and Renilla luciferase (B). Arrows indicate the positions of protected probe fragments corresponding to unspliced (US) and spliced (S) HIV-1 RNA and Renilla luciferase (R-Luc). Lanes marked ‘Probe’ contain undigested probe RNA equivalent to 10% of the input to protection assays. The radioactivity of the protected bands, quantified with a phosphoimager using ImageQuant, is expressed in relative units.
(§3) Cells and plasmids. 293T cells were grown in Dulbecco's Modified Eagle's medium with 10% fetal bovine serum. pBSIIKS+HIV(+80-341) was constructed by subcloning the PCR-amplified HIV-1 sequence corresponding to nucleotides +80 to +341 of the HIV molecular clone (pNL4-3-Luc E-) between the SmaI and HindIII sites of the pBluescriptllKS+ vector (Stratagene, Calif.). Plasmids pSP-rluc and pCMV-Renilla were purchased from Promega (Madison, Wis.). […]

[2] = tested on: CMV-Renilla luciferase transcript; test: RNase protection assay of CMV-Renilla luciferase transcript in transfected 293T cells; assay type: cell-based, human; settings: 30 μM, FIG. 1B
Protocol: as §2, §3

[3] = biological target: T1, deoxyhypusine hydroxylase (DOHH) (Homo sapiens, UniProt Q9BU89); test: DOHH activity in HIV-1 infected H9 cells by metabolic labeling with 3H-spermidine; assay type: cell-based; set-up: inhibition of DOHH: dose or concentration left out as unconfirmed; settings: for concentration with complete suppression of DOHH activity: H9 cells; for inhibition of cellular DOHH: HIV-1 infected H9 cells, dose dependence
T1 construct: endogenous in cells; host or cells: HIV-1 infected H9 cells
T1 sequence (Q9BU89 1-302): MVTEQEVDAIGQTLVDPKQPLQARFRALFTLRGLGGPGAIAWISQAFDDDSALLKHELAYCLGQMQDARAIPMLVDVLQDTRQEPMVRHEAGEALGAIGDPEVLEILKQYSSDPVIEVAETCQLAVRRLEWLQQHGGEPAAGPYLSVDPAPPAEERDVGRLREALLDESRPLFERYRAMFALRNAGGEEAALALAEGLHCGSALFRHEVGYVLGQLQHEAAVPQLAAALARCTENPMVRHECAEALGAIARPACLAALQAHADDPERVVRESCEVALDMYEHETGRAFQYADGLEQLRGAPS
Protocol: as §1
DOHH activity was measured by metabolic labeling with radioactive spermidine (see FIG. 2), followed by protein hydrolysis\ and amino acid analysis as reported (Hanauske-Abel et al., FEBS Left. 366, 92-98, 1995, which is hereby incorporated by reference). This finding corroborates the results obtained with purified DOHH (FIG. 3) and is consistent with the findings presented in FIG. 1.

[4] = tested on: HIV-1 molecular clone pNL4-3-Luc E-; test: Firefly luciferase reporter in full-length HIV-1 molecular clone pNL4-3-Luc E-, 293T cells; assay type: cell-based, human; settings: 30 μM, 12 hours post-transfection, FIG. 1C left
Protocol: (§4) (C) Specificity of inhibition by CPX. Cells were co-transfected with 500 ng pNL4-3-Luc E-, or with 100 ng of HIV-1 LTR-firefly luciferase reporter plasmid and 20 ng of pRSV-Tat, together with 100 ng of CMV-Renilla luciferase reporter plasmid. Buffer (Control), 30 μM ciclopirox (CPX), or 30 μM Princeton 2 (P2) was added during transfection, and cells were harvested at 12 hours post-transfection for luciferase assay. Results are presented as the ratio of firefly luciferase to Renilla luciferase, normalized to the controls, with standard deviations indicated.
(§5) Cells and plasmids. 293T cells were grown in Dulbecco's Modified Eagle's medium with 10% fetal bovine serum. pBSIIKS+HIV(+80-341) was constructed by subcloning the PCR-amplified HIV-1 sequence corresponding to nucleotides +80 to +341 of the HIV molecular clone (pNL4-3-Luc E-) between the SmaI and HindIII sites of the pBluescriptllKS+ vector (Stratagene, Calif.). Plasmids pSP-rluc and pCMV-Renilla were purchased from Promega (Madison, Wis.). The plasmids pRSV-Tat and pLTR-firefly luciferase were described earlier (Hogue et al. MCB 2003). The HIV-1 molecular clone pNL4-3-Luc E-, in which part of the Nef gene is replaced by firefly luciferase and the envelope gene is mutated (Chen B. K., J. Virol. 1994), was generously supplied by Dr. D. Baltimore.
(§6) Gene expression assays. […]

[5] = tested on: HIV-1 LTR-firefly luciferase reporter; test: HIV-1 LTR-firefly luciferase reporter with pRSV-Tat, 293T cells; assay type: cell-based, human; settings: 30 μM, compared to control and P2, FIG. 1C right
Protocol: as §4, §5, §6

HIV-1 infected H9 cells = test: Apoptosis of HIV-1 infected H9 cells by TUNEL flow cytometry; assay type: cell-based, human; settings: for initiation of apoptosis: HIV-1 infected lymphocyte cell line H9, dose dependence; for apoptosis at maximal concentration: H9 cells, IMP 400 μM, DES 20 μM
Protocol: as §1

[6] = biological target: T1, deoxyhypusine hydroxylase (DOHH); test: DOHH activity in HPV-16 infected SiHa cells by metabolic labeling with 3H-spermidine; assay type: cell-based; set-up: inhibition of DOHH: dose or concentration left out as unconfirmed; settings: for inhibition of DOHH: HPV-positive SiHa cells
Protocol: as §1

[7] = tested on: peripheral blood mononuclear cells acutely infected with HIV-1; test: Apoptosis in fresh peripheral blood mononuclear cells acutely infected with a patient isolate of HIV-1; assay type: cell-based, human; settings: preferentially when acutely infected with HIV-1, FIG. 8
Source text: This effect is ascribed to the suppression of retroviral antiapoptotic proteins as part of the general suppression of retroviral protein synthesis, as exemplified by the decrease in p24 (FIG. 6).

patient-isolate of HIV-1 [8] = test: HIV-1 p24 and RNA formation in fresh peripheral blood mononuclear cells acutely infected with a patient isolate; assay type: cell-based, human; settings: acutely infected PBMC
Source text: This system is considered a close model for the actual infection of a human being by ‘wild-type’ HIV-1.

purified DOHH = biological target: T2, purified DOHH (Homo sapiens, UniProt Q9BU89); test: Inhibition of purified DOHH with labeled deoxyhypusine-containing eIF5A substrate; assay type: biochemical; settings: FIG. 3
T2 sequence (Q9BU89 1-302): T1 sequence (Q9BU89 1-302)
Protocol: The assay was conducted by using purified enzyme and offering deoxhypusine-containing, deoxhypusine-labeled eIF5A as substrae, plus the appropriate cofactors (see FIG. 2). Enzyme activity was assessed by determining the amount of mature, ie. radioactive hypusine-containing eIF5A via protein hydrolysis, followed by amino acid analysis.

[9] = tested on: HPV-16 infected SiHa cells; test: Apoptosis of HPV-16 infected SiHa cells by TUNEL flow cytometry; assay type: cell-based, human
Protocol: as §1

HIV-1 = test: p24 formation in HIV-1-infected H9 cells by immunoassay; assay type: cell-based, human; settings: FIG. 5
patient-isolate of HIV-1 [10] = test: HIV-1 p24, RNA and proviral DNA in peripheral blood mononuclear cells chronically infected with a patient isolate; assay type: cell-based, human; settings: FIG. 9
Protocol: The double y-axis plot of FIG. 9 summarizes the effect of deferiprone on HIV protein synthesis (p24 [left y-axis]), HIV RNA synthesis (copies [right y-axis]), and the presence of HIV DNA, integrated as provirus into the genome of the infected host cells. The cell system and mode of infection used are the same as in FIGS. 6 to 8, i.e. freshly isolated peripheral blood mononuclear cells infected with a patient-isolate of HIV-1, except that the compound was added only after the full-blown infection had developed. The design requires the addition of uninfected cells very second day, so as to keep the infection from burning out. […] The near-eradication of provirus is attributed to the selective apoptotic ablation of HIV-infected cells by DOHH inhibitors (see FIG. 8).

## Cc1cc(C2CCCCC2)n(O)c(=O)c1 [ciclopirox, 6-cyclohexyl-l-hydroxy-4-methyl-2(1H)-pyridone]
Uninfected lymphocytes
  apoptosis in native human lymphocytes not infected by HIV-1: does not trigger apoptosis
  apoptosis of lymphocytes harvested from healthy volunteers: failed to respond with apoptosis
[1]
  accumulation of spliced and unspliced HIV-1 transcripts: selectively suppresses
[2]
  transcript accumulation encoded by cytomegalovirus (CMV): does not affect transcript accumulation
[3]
  concentration with complete suppression of DOHH activity: 40 µM
  inhibition of cellular DOHH: dose-dependent inhibition
[3]; listed as (2)
  inhibition of cellular DOHH: dose-dependent inhibition
[3]; listed as CPX
  inhibition of cellular DOHH: inhibited DOHH
[4]
  expression of firefly luciferase reporter encoded in full-length genomic HIV-1 clone: distinctly more inhibitory effect than P2
[4]; listed as Ciclopirox
  expression of firefly luciferase reporter encoded in full-length genomic HIV-1 clone: reduces gene expression
[5]
  luciferase gene expression from HIV-1 LTR reporter lacking RRE: did not reduce luciferase gene expression
HIV-1 infected H9 cells; 40 μM, 18 hours (overnight), HIV-1 infected H9 cells
  apoptosis, share of all cells: more than 30%
HIV-1 infected H9 cells
  initiation of apoptosis: dose-dependent initiation of apoptosis
HIV-1 infected H9 cells; listed as CPX
  initiation of apoptosis: triggered dose-dependent apoptosis
HIV-1 infected H9 cells; comparison compound class not given
  potency in causing a very similar spectrum of effects: about ten times more potent
[6]; 40 μM
  DOHH activity of SiHa cells: totally suppressed
[6]; dose dependence
  inhibition of DOHH: inhibited DOHH
[7]
  apoptosis in PBMC: triggers apoptosis
patient-isolate of HIV-1 [8]; FIG. 6
  formation of retroviral p24 protein: efficient in suppressing
patient-isolate of HIV-1 [8]; PCR, FIG. 7
  formation of retroviral RNA, viral load: efficient in suppressing
Purified DOHH
  inhibition of purified DOHH: disctinctly more susceptible to inhibition
[9]
  apoptosis in HPV infected human keratinocytes: does not trigger apoptosis
[9]; 40 μM, even after 120 hours
  apoptosis in SiHa cells: did not initiate apoptosis
HIV-1
  retroviral protein synthesis assessed via p24: suppressed retroviral protein synthesis

## CC(=O)N(O)CCCCCNC(=O)CCC(=O)N(O)CCCCCNC(=O)CCC(=O)N(O)CCCCCN [DES]
Uninfected lymphocytes
  apoptosis of lymphocytes harvested from healthy volunteers: failed to respond with apoptosis
HIV-1 infected H9 cells
  apoptosis at maximal concentration: failed to elicit apoptosis

## Cc1c(O)c(=O)ccn1C [deferiprone]
Uninfected lymphocytes
  apoptosis of lymphocytes harvested from healthy volunteers: failed to respond with apoptosis
[3]
  concentration with complete suppression of DOHH activity: 200 µM
  inhibition of cellular DOHH: inhibited DOHH
HIV-1 infected H9 cells
  initiation of apoptosis: triggered dose-dependent apoptosis
[6]; dose dependence
  inhibition of DOHH: inhibited DOHH
patient-isolate of HIV-1 [10]; compound added after full-blown infection
  HIV protein synthesis (p24): undetectable
patient-isolate of HIV-1 [10]; end of experiment
  HIV DNA integrated as provirus: at best a trace of integrated provirus
patient-isolate of HIV-1 [10]; over the days after p24 became undetectable
  HIV RNA: dropped to the limit of detection

## 2-imidazoyl-4-methylphenol [IMP]
[3]; HIV-positive H9 cells
  inhibition of DOHH: uniformly ineffective
HIV-1 infected H9 cells
  apoptosis at maximal concentration: failed to elicit apoptosis
[6]
  inhibition of DOHH: uniformly ineffective
